56 compounds from patent US20250099448A1, “HETEROCYCLIC COMPOUNDS” (Hoffmann-La Roche Inc., priority 2022, published 2025) can be followed below.

Molecules are shown by their SMILES.

For this test, the target named is T1, MAGL protein (Homo sapiens, UniProt Q99685).
T1 sequence (Q99685 1-303): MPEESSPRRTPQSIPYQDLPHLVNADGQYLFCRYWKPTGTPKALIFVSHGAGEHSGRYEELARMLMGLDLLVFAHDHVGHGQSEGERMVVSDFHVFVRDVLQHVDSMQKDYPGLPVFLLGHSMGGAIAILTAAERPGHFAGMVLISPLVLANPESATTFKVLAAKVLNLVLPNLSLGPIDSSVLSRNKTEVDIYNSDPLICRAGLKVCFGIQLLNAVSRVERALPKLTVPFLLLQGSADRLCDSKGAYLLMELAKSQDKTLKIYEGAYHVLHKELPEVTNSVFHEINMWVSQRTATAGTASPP
Kind of test: 2-AG assay: MAGL inhibitory activity by hydrolysis of 2-arachidonoylglycerol to arachidonic acid, followed by mass spectrometry. Particulars: 8 μM 2-arachidonoylglycerol, 15 min preincubation, 30 min reaction at RT, RapidFire MS readout. It counts as biochemical. The method in brief:
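Activity was measured by RapidFire SPE–triple-quad MS as the ratio of arachidonic acid to d8-arachidonic acid after 2-AG hydrolysis (8 μM substrate, 30 min, RT, acetonitrile quench). Compounds, tested from 12.5 μM down to […], were first preincubated 15 min with MAGL in TRIS/EDTA/Tween-20 buffer containing 2.5% DMSO.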
As a reminder, the IC50 is the point on the concentration scale where inhibition reaches its midpoint. Higher therefore signals lower potency. `CS(=O)(=O)c1cccc(CC2CC3(C2)CN(C(=O)N2CC4(CC(c5nnc(C6CC6)[nH]5)C4)C2)C3)c1` [compound 15] had an IC50 of 1.33 nM. This counts as single-digit nanomolar.

In the case of `CS(=O)(=O)c1cccc(CC2CC3(C2)CN(C(=O)N2CC4(CC(c5nnc(C6(O)CC6)[nH]5)C4)C2)C3)c1` [compound 16], the IC50 was found to be 1.51 nM.

In turn, `CS(=O)(=O)c1cccc(CC2CC3(C2)CN(C(=O)N2CC4(CC(c5nnc(C6CCC6)[nH]5)C4)C2)C3)c1` [compound 17] registered an IC50 of 15.2 nM.

The compound `CS(=O)(=O)c1cc(F)cc(CC2CC3(C2)CN(C(=O)N2CC4(CC(c5nnc(C6CC6)[nH]5)C4)C2)C3)c1` [compound 18] displayed an IC50 of 0.3 nM.

The compound `CS(=O)(=O)c1cc(F)cc(CC2CC3(C2)CN(C(=O)N2CC4(CC(c5nnc(C6(O)CC6)[nH]5)C4)C2)C3)c1` [compound 19] returned an IC50 of 4.81 nM.

With `O=C(N1CC2(CC(Cc3cnc(C(F)(F)F)nc3)C2)C1)N1CC2(CC(c3nnc(C4CC4)[nH]3)C2)C1` [compound 20], the IC50 came to 0.74 nM.

Turning to `O=C(N1CC2(CC(Cc3cnc(C(F)(F)F)nc3)C2)C1)N1CC2(CC(c3nnc(C4(O)CC4)[nH]3)C2)C1` [compound 21], the IC50 stood at 5.33 nM. This IC50 lies about 7.2-fold higher than the previous one.

With `O=C(N1CC2(CC(Cc3ccc(C(F)(F)F)nn3)C2)C1)N1CC2(CC(c3nnc(C4CC4)[nH]3)C2)C1` [compound 22], the IC50 stood at 0.8 nM.

For `O=C(N1CC2(CC(Cc3ccc(C(F)(F)F)nn3)C2)C1)N1CC2(CC(c3nnc(C4(O)CC4)[nH]3)C2)C1` [compound 23], the IC50 is 4.43 nM. Against the preceding compound, the IC50 is about 5.5-fold higher.

In the case of `CS(=O)(=O)c1cc(F)ccc1CC1CC2(C1)CN(C(=O)N1CC3(CC(c4nnc(C5CC5)[nH]4)C3)C1)C2` [compound 24], the IC50 turned out to be 0.7 nM. Compared with the last compound, the IC50 is about 6.3-fold lower.

In turn, `CS(=O)(=O)c1cc(F)ccc1CC1CC2(C1)CN(C(=O)N1CC3(CC(c4nnc(C5CCC5)[nH]4)C3)C1)C2` [compound 25] yielded an IC50 of 4.48 nM.

`N#Cc1cc(CC2CC3(C2)CN(C(=O)N2CC4(CC(c5nnc(C6CC6)[nH]5)C4)C2)C3)ccc1C(F)(F)F` [compound 26]: half-maximal inhibition (IC50) required 0.02 nM.

As to `N#Cc1cc(CC2CC3(C2)CN(C(=O)N2CC4(CC(c5nnc(C6(O)CC6)[nH]5)C4)C2)C3)ccc1C(F)(F)F` [compound 27], the midpoint of inhibition, the IC50, lay at 0.11 nM.

As to `O=C(N1CC2(CC(Cc3ncc(C(F)(F)F)cn3)C2)C1)N1CC2(CC(c3nnc(C4CC4)[nH]3)C2)C1` [compound 28], the IC50 was 0.94 nM.

Compound `O=C(N1CC2(CC(Cc3ccc(F)cc3C(F)(F)F)C2)C1)N1CC2(CC(c3nnc(C4CC4)[nH]3)C2)C1` [compound 33] showed an IC50 of 0.01 nM.

Turning to `O=C(N1CC2(CC(Cc3ccc(F)cc3C(F)(F)F)C2)C1)N1CC2(CC(c3nnc(C4(O)CC4)[nH]3)C2)C1` [compound 34], the IC50 worked out at 0.01 nM.

The compound `O=C(N1CC2(CC(Cc3ccc(F)cc3F)C2)C1)N1CC2(CC(c3nnc(C4CC4)[nH]3)C2)C1` [compound 35] came in with an IC50 of 0.07 nM.

In turn, `O=C(N1CC2(CC(Cc3ccc(F)cc3F)C2)C1)N1CC2(CC(c3nnc(C4(O)CC4)[nH]3)C2)C1` [compound 36] gave an IC50 of 0.05 nM.

Compound `O=C(N1CC2(CC(Cc3ccc(C(F)(F)F)cc3F)C2)C1)N1CC2(CC(c3nnc(C4CC4)[nH]3)C2)C1` [compound 37] came in with an IC50 of 0.01 nM.

`O=C(N1CC2(CC(Cc3ccc(C(F)(F)F)cc3F)C2)C1)N1CC2(CC(c3nnc(C4(O)CC4)[nH]3)C2)C1` [compound 38] returned an IC50 of 0.01 nM.

Turning to `CS(=O)(=O)c1cc(C(F)(F)F)ccc1CC1CC2(C1)CN(C(=O)N1CC3(CC(c4nnc(C5CC5)[nH]4)C3)C1)C2` [compound 39], the IC50 stood at 0.15 nM.

`CS(=O)(=O)c1cc(C(F)(F)F)ccc1CC1CC2(C1)CN(C(=O)N1CC3(CC(c4nnc(C5(O)CC5)[nH]4)C3)C1)C2` [compound 40]: it took 0.4 nM to reach half-maximal inhibition (IC50).

The compound `CS(=O)(=O)c1cc(CC2CC3(C2)CN(C(=O)N2CC4(CC(c5nnc(C6CC6)[nH]5)C4)C2)C3)ccc1C(F)(F)F` [compound 41] returned a 50% inhibitory concentration (IC50) of 0.24 nM.

Consider `CS(=O)(=O)c1cc(CC2CC3(C2)CN(C(=O)N2CC4(CC(c5nnc(C6(O)CC6)[nH]5)C4)C2)C3)ccc1C(F)(F)F` [compound 42], for which the IC50 was 0.88 nM. Compared with the last compound, the IC50 is about 3.7-fold higher.

As to `O=C(N1CC2(CC(Cc3ccc(F)cn3)C2)C1)N1CC2(CC(c3nnc(C4CC4)[nH]3)C2)C1` [compound 43], half-maximal inhibition (IC50) was put at 0.58 nM.

Compound `O=C(N1CC2(CC(Cc3ccc(F)cn3)C2)C1)N1CC2(CC(c3nnc(C4(O)CC4)[nH]3)C2)C1` [compound 44] returned an IC50 of 2.24 nM.

`O=C(N1CC2(CC(Cc3cncc(F)c3)C2)C1)N1CC2(CC(c3nnc(C4CC4)[nH]3)C2)C1` [compound 45] showed an IC50 of 2.37 nM.

Compound `CS(=O)(=O)c1ccc(CC2CC3(C2)CN(C(=O)N2CC4(CC(c5nnc(C6CC6)[nH]5)C4)C2)C3)cc1C(F)(F)F` [compound 46] had an IC50 of 0.9 nM.

The compound `CS(=O)(=O)c1ccc(CC2CC3(C2)CN(C(=O)N2CC4(CC(c5nnc(C6(O)CC6)[nH]5)C4)C2)C3)cc1C(F)(F)F` [compound 47] displayed an IC50 of 0.27 nM.

`O=C(N1CC2(CCC(Cc3ccc(C(F)(F)F)cn3)CC2)C1)N1CC2(CC(c3nnc(C4CC4)[nH]3)C2)C1` [compound 48] showed an IC50 of 0.13 nM. Compared with the last compound, the IC50 is about 2.1-fold lower.

Consider `O=C(N1CC2(CCC(Cc3ccc(C(F)(F)F)cn3)CC2)C1)N1CC2(CC(c3nnc(C4(O)CC4)[nH]3)C2)C1` [compound 49], for which the IC50 stood at 0.81 nM.

Compound `O=C(N1CC2(CCC(Cc3ccc(C(F)(F)F)cn3)C2)C1)N1CC2(CC(c3nnc(C4CC4)[nH]3)C2)C1` (centres unmarked) [compound 50] came in with an IC50 of 0.19 nM.

`O=C(N1CC2(CCC(Oc3ccc(C(F)(F)F)nn3)CC2)C1)N1CC2(CC(c3nnc(C4CC4)[nH]3)C2)C1` [compound 51] gave a concentration for half-maximal inhibition (IC50) of 1.77 nM.

Compound `O=C(N1CC2(CCC(Oc3ccc(C(F)(F)F)nn3)CC2)C1)N1CC2(CC(c3nnc(C4CCC4)[nH]3)C2)C1` [compound 52] had an IC50 of 18.7 nM.

`CP1(=O)CCN(c2ccc(C3CN(C(=O)N4CC5(CC(c6nnc(C7CC7)[nH]6)C5)C4)C3)cn2)CC1` [compound 53] showed an IC50 of 179 nM.

Compound `O=C(N1CC2(CC(CNC3(C(F)(F)F)CC3)C2)C1)N1CC2(CC(c3nnc(C4CC4)[nH]3)C2)C1` [compound 54] had an IC50 of 2.8 nM.

Consider `O=C(N1CC2(CC(CNC3(C(F)(F)F)CC3)C2)C1)N1CC2(CC(c3nnc(C4(O)CC4)[nH]3)C2)C1` [compound 55], for which the midpoint of inhibition, the IC50, lay at 22 nM.

`O=C(N1CC2(CC(NS(=O)(=O)c3cccc(C(F)(F)F)c3)C2)C1)N1CC2(CC(c3nnc(C4CC4)[nH]3)C2)C1` [compound 56] registered an IC50 of 0.74 nM.

For `O=C(N1CC2(CC(Nc3ccc(C(F)(F)F)nn3)C2)C1)N1CC2(CC(c3nnc(C4CC4)[nH]3)C2)C1` [compound 57], the midpoint of inhibition, the IC50, lay at 25.7 nM.

In the case of `O=C(N1CC2(CC(Cc3nc(C(F)(F)F)ns3)C2)C1)N1CC2(CC(c3nnc(C4CC4)[nH]3)C2)C1` [compound 59], the IC50 came to 0.53 nM.

Consider `O=C(N1CC2(CC(Cc3nc(C(F)(F)F)ns3)C2)C1)N1CC2(CC(c3nnc(C4(O)CC4)[nH]3)C2)C1` [compound 60], for which the concentration for half-maximal inhibition (IC50) was 4.03 nM.

Take `O=C(N1CC2(CC(Cc3nc(C(F)(F)F)co3)C2)C1)N1CC2(CC(c3nnc(C4CC4)[nH]3)C2)C1` [compound 61]: the IC50 came out at 0.66 nM.

Take `O=C(N1CC2(CC(Cc3nc(C(F)(F)F)co3)C2)C1)N1CC2(CC(c3nnc(C4(O)CC4)[nH]3)C2)C1` [compound 62]: the half-inhibitory concentration (IC50) turned out to be 8.06 nM.

Compound `O=C(N1CC2(CC(Cn3cnc(C(F)(F)F)c3)C2)C1)N1CC2(CC(c3nnc(C4CC4)[nH]3)C2)C1` [compound 63] returned an IC50 of 3.59 nM.

`O=C(N1CC2(CC(Cn3cnc(C(F)(F)F)c3)C2)C1)N1CC2(CC(c3nnc(C4(O)CC4)[nH]3)C2)C1` [compound 64] yielded an IC50 of 37.9 nM.

Turning to `O=C(N1CC2(CCC(OCC3(C(F)(F)F)CC3)CC2)C1)N1CC2(CC(c3nnc(C4CC4)[nH]3)C2)C1` [compound 65], the IC50 amounted to 1.46 nM.

Turning to `O=C(N1CC2(CCC(OCC3(C(F)(F)F)CC3)CC2)C1)N1CC2(CC(c3nnc(C4(O)CC4)[nH]3)C2)C1` [compound 66], the concentration for half-maximal inhibition (IC50) amounted to 1.91 nM.

`O=C(N1CC2(CC(c3cnc(C(F)(F)F)cn3)C2)C1)N1CC2(CC(c3nnc(C4CC4)[nH]3)C2)C1` [compound 67]: inhibition was half-maximal at 5.86 nM (IC50).

Consider `O=C(N1CC2(CC(OCC3(C(F)(F)F)CC3)C2)C1)N1CC2(CC(c3nnc(C4CC4)[nH]3)C2)C1` [compound 68], for which the IC50 was 5.36 nM.

Turning to `O=C(N1CC2(CC(OCC3(C(F)(F)F)CC3)C2)C1)N1CC2(CC(c3nnc(C4(O)CC4)[nH]3)C2)C1` [compound 69], the IC50 was determined as 21.3 nM. This IC50 is about 4-fold higher than that of the compound before.

Consider `O=C(N1CC2(CC(NC3(C(F)(F)F)CC3)C2)C1)N1CC2(CC(c3nnc(C4CC4)[nH]3)C2)C1` [compound 70], for which the IC50 came out at 7.25 nM.

Compound `O=C(N1CC2(CC(Cn3cnc(C(F)(F)F)n3)C2)C1)N1CC2(CC(c3nnc(C4CC4)[nH]3)C2)C1` [compound 71] returned an IC50 of 1.74 nM.

`O=C(NC1(C(F)(F)F)CC1)C1CC2(C1)CN(C(=O)N1CC3(CC(c4nnc(C5CC5)[nH]4)C3)C1)C2` [compound 72] yielded an IC50 of 157 nM.

As for `O=C(N1CC2(CCC(Oc3ccnc(C(F)(F)F)n3)CC2)C1)N1CC2(CC(c3nnc(C4CC4)[nH]3)C2)C1` [compound 73], the IC50 worked out at 3.24 nM.

Regarding `O=C(N1CC2(CCC(Oc3cnc(C(F)(F)F)cn3)CC2)C1)N1CC2(CC(c3nnc(C4CC4)[nH]3)C2)C1` [compound 74], the IC50 turned out to be 0.77 nM.

In turn, `O=C(N1CC2(CC(Oc3cnc(C(F)(F)F)cn3)C2)C1)N1CC2(CC(c3nnc(C4CC4)[nH]3)C2)C1` [compound 75] came in with an IC50 of 5.55 nM.
